Consider seven molecules from publication PMC4453034, “A functional comparison of the domestic cat bitter receptors Tas2r38 and Tas2r43 with their human orthologs” (BMC Neuroscience, 2015).

Test [1] addresses T1, human TAS2R43 (Homo sapiens, UniProt P59537).
T1 sequence (P59537 1-309): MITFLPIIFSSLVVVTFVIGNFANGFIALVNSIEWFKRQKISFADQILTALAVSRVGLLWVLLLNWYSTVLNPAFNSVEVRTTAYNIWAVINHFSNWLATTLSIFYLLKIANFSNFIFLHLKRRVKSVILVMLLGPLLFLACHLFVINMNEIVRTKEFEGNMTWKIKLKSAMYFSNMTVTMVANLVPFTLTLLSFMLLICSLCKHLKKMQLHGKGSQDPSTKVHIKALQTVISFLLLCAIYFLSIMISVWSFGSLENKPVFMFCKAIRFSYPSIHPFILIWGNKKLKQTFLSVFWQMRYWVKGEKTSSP
As to the kind of experiment: Ca2+ flux assay, transiently transfected cells with Gα16-gust44. The conditions noted are these: for calcium flux response of human TAS2R43: PTC 100 μM, C4-HSL, aloin 300 μM, denatonium 1 mM, saccharin 6.7 mM; for Hill Slope TAS2R43 human: calcium flux dose response. A general note: A change in cytosolic calcium serves as a functional read-out for many receptors and channels.

Test [2] concerns the target T1, human TAS2R43. The arrangement: created similarly, expressing full-length receptor under the control of a CMV promoter; expressed in transfected cells; host or cells: mammalian cells (ATCC CRL-11268), co-transfected with Gα16-gust44. Particulars: published value for human TAS2R43; cited from earlier work.
For test [3], the target named is cat Tas2r43 (Felis catus, UniProt A0ABI8A390). The experiment in a line: Ca2+ flux assay, transiently transfected cells with Gα16-gust44. Particulars: for calcium flux response of cat Tas2r43: PTC 100 μM, aloin 300 μM, denatonium 1 mM, saccharin 6.7 mM; for Hill Slope Tas2r43 cat: calcium flux dose response.
The next test deals with T2, human TAS2R16 (Homo sapiens, UniProt Q9NYV7).
T2 sequence (Q9NYV7 1-291): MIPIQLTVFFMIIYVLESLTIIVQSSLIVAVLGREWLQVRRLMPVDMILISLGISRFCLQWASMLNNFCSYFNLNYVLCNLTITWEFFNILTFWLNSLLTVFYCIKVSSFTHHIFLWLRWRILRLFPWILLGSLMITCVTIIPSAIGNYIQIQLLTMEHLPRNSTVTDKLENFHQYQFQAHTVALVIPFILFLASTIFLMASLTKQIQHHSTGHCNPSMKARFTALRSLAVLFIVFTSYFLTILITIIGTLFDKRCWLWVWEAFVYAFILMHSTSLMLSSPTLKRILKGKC
As to the kind of experiment: Ca2+ flux assay, negative control receptor. The conditions noted are these: PTC 100 μM, C4-HSL.

For the next test, the target named is T3, cat Tas2r38 (Felis catus, UniProt Z9BUK5U3L3).
T3 sequence (Z9BUK5U3L3 1-334): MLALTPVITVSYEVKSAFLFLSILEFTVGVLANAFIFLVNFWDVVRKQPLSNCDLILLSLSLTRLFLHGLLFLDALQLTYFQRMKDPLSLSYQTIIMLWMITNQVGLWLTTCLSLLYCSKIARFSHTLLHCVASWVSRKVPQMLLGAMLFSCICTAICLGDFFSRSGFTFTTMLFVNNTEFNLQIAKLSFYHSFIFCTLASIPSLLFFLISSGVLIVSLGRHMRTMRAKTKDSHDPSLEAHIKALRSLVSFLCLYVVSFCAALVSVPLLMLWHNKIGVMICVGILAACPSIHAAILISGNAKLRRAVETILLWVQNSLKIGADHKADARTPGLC
As to the kind of experiment: Ca2+ flux assay, transiently transfected cells with Gα16-gust44. The conditions noted are these: for calcium flux response of cat Tas2r38: PTC 100 μM, PROP 30 μM, C4-HSL 200 μM.

In test [4] the target is T4, human TAS2R38 (Homo sapiens, UniProt P59533).
T4 sequence (P59533 1-333): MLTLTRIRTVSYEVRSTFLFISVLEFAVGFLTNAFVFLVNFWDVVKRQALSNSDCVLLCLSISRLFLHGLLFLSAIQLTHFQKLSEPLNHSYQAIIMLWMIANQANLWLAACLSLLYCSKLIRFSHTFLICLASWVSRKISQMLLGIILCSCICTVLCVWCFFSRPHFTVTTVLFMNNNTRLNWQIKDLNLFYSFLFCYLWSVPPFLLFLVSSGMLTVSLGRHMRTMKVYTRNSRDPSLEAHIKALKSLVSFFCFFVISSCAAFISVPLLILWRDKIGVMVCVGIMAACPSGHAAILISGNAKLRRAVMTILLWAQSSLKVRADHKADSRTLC
The description is as above. The conditions noted are these: for calcium flux response of human TAS2R38: PTC 100 μM, PROP 30 μM, C4-HSL 200 μM; for Hill Slope TAS2R38 human: calcium flux dose response.

Test [5] has as its target T4, human TAS2R38. Details: created similarly, expressing full-length receptor under the control of a CMV promoter; expressed in transfected cells; host or cells: mammalian cells (ATCC CRL-11268), co-transfected with Gα16-gust44; method as in PMID 15723792. Particulars: published value for human TAS2R38; cited from earlier work.
In test [6] the test system is cat Tas2r43. The experiment in a line: Ca2+ flux assay, transiently transfected cells with Gα16-gust44. The conditions noted are these: PTC 100 μM, aloin 300 μM, denatonium 1 mM, saccharin 6.7 mM.
The next test concerns the target T5, human TAS2R31 (Homo sapiens, UniProt P59538).
T5 construct: expressed in transfected cells; host or cells: transiently transfected cells expressing the receptor and Gα16-gust44
T5 sequence (P59538 1-309): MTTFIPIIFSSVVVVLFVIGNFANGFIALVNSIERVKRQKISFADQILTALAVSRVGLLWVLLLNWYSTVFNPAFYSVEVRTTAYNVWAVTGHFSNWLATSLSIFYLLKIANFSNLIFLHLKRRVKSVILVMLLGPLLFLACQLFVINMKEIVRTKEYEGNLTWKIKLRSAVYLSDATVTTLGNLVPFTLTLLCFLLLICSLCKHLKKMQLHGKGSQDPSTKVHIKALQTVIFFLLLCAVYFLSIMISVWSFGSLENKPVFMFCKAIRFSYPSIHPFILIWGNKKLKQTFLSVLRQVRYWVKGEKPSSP
The experiment in a line: Ca2+ flux assay, probenecid specificity control. Particulars: 1 mM probenecid, one hour pre-incubation. The test is classed as cell-based.

Setting [7] is: 1 mM probenecid, one hour pre-incubation, 300 μM aloin.
Setting [8] is: 1 mM probenecid, one hour pre-incubation, 1 mM denatonium.
[9] abbreviates: 1 mM probenecid, one hour pre-incubation, 33 μM PTC.

Each structure is given as a SMILES string. “Also recorded” adds a separate entry of the source. Where a name gives a salt, the structure may show the parent alone. Read-outs that look alike come from different tables or passages of the source.

Sequence of cat Tas2r43 (Felis catus, UniProt A0ABI8A390) (A0ABI8A390 entry or part of it): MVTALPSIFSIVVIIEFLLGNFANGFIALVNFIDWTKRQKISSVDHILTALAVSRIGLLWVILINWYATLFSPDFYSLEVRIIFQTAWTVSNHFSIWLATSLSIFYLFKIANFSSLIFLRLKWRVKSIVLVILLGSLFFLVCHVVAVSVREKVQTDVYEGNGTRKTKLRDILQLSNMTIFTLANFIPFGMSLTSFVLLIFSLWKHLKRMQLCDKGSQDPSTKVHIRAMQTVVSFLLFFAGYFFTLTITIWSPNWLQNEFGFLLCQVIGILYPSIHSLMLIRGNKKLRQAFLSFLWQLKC

One may read the EC50 as the concentration that produces a half-maximal response. Take `O=C1c2c(O)cccc2C([C@@H]2O[C@H](CO)[C@@H](O)[C@H](O)[C@H]2O)c2cc(CO)cc(O)c21` (stereo partly shown) [Aloin, aloin]: at human TAS2R43 [1], the midpoint of the response, the EC50, lay at 35 µM; the “calcium flux response of human TAS2R43” value is recorded as “responded”; the “Hill Slope TAS2R43 human” value is 0.8. Moreover, at human TAS2R43 [2], the EC50 was 1.2 µM. Besides, on cat Tas2r43 [3], the “calcium flux response of cat Tas2r43” value is “responded” and the “Hill Slope Tas2r43 cat” value turned out to be 1.0. For the same molecule, at cat Tas2r43 [3] (from EC50 values), the “fold more sensitive, human TAS2R43 vs cat Tas2r43” value was “about 10 fold”.
As for `CCCC(=O)N[C@H]1CCOC1=O` [C4-HSL], the “calcium flux response of human TAS2R16” value on human TAS2R16 is “no response”. Further, the “calcium flux response of human TAS2R43” value on human TAS2R43 [1] was “no response”. For the same molecule, the “calcium flux response of cat Tas2r38” value at cat Tas2r38 is listed as “responded weakly but specifically”. Besides, on human TAS2R38 [4], the “calcium flux response of human TAS2R38” value is listed as “responded weakly but specifically”.
Consider `CC[N+](CC)(CC(=O)Nc1c(C)cccc1C)Cc1ccccc1` [Denatonium, denatonium benzoate], for which, on human TAS2R43 [1], the EC50 was 1210 µM, the “calcium flux response of human TAS2R43” value is listed as “responded” and the “Hill Slope TAS2R43 human” value amounted to 1.3. The EC50 on human TAS2R43 [2] was 300 µM. Further, at cat Tas2r43 [3], the “calcium flux response of cat Tas2r43” value is given as “responded” and the “Hill Slope Tas2r43 cat” value is on record as 1.7. Also, the “fold lower EC50, cat Tas2r43 vs human TAS2R43” value on cat Tas2r43 [3] (from EC50 values) is “greater than 5 fold”.
In the case of `CCCc1cc(=O)[nH]c(=S)[nH]1` [PROP, 6-propyl-2-thiouracil], at human TAS2R38 [4], the response was half-maximal at 2.2 µM (EC50), the “calcium flux response of human TAS2R38” value is “responded” and the “Hill Slope TAS2R38 human” value was determined as 1.59. In addition, the EC50 on human TAS2R38 [5] was 2.1 µM.
As for `NC(=S)Nc1ccccc1` [PTC, phenylthiocarbamide], the “calcium flux response of human TAS2R16” value at human TAS2R16 is reported as “did not respond”. Further, the “calcium flux response of human TAS2R43” value at human TAS2R43 [1] is “did not respond”. Moreover, the “calcium flux response of cat Tas2r38” value at cat Tas2r38 is “strong calcium flux”. In addition, the “peak fluorescence over baseline” value at cat Tas2r38 (PTC at 100 μM) came to 40%; at human TAS2R38 [4] (PTC at 100 μM), 27%. Also, at cat Tas2r38 (calcium flux dose response), the “Hill Slope Tas2r38 cat” value is listed as 2.6. Moreover, the “fold less concentration sensitive, cat Tas2r38 vs human TAS2R38” value on cat Tas2r38 (from EC50 values) is listed as “at least 10 fold”. Also, the EC50 is 47 µM with cat Tas2r38 (read-out: EC50 Tas2r38 cat, calcium flux dose response, 22 h post-transfection); 2.3 µM on human TAS2R38 [4]; 1.1 µM at human TAS2R38 [5]. Also, on human TAS2R38 [4], the “calcium flux response of human TAS2R38” value is listed as “strong calcium flux”. Besides, the “Hill Slope TAS2R38 human” value at human TAS2R38 [4] amounted to 1.0. Moreover, the “calcium flux response of cat Tas2r43” value in the test on cat Tas2r43 [6] is listed as “did not respond”.
In the case of `O=C1NS(=O)(=O)c2ccccc21` [Saccharin, saccharin sodium salt hydrate], the “calcium flux response of cat Tas2r43” value in the test with cat Tas2r43 [6] is listed as “did not elicit a response”.
On to `CCCN(CCC)S(=O)(=O)c1ccc(C(=O)O)cc1` [probenecid], for which the “probenecid effect on human TAS2R43 response to aloin” value on human TAS2R43 [1] (setting [7]) was “inhibited”. Further, the “probenecid effect on human TAS2R43 response to denatonium” value on human TAS2R43 [1] (setting [8]) was “inhibited”. In addition, the “probenecid effect on cat Tas2r38 response to PTC” value on cat Tas2r38 (setting [9]) is given as “failed to induce a calcium flux; also recorded: inhibited completely”. For the same molecule, the “probenecid effect on human TAS2R38 response to PTC” value on human TAS2R38 [4] (setting [9]) is “failed to induce a calcium flux; also recorded: inhibited completely”. For the same molecule, the “probenecid effect on cat Tas2r43 response to aloin” value on cat Tas2r43 [3] (setting [7]) is reported as “inhibited”. Moreover, the “probenecid effect on cat Tas2r43 response to denatonium” value at cat Tas2r43 [3] (setting [8]) is recorded as “inhibited”. In addition, the “probenecid effect on human TAS2R31 response to saccharin” value on human TAS2R31 is “stimulation of flux”.
